Assay results: US10758634B2, “Compounds, compositions and associated methods using zirconium-89 in immuno-positron emission tomography” (Wake Forest University, priority 2016, dated 2020)
Entries after “also recorded” stand apart in the source; their conditions may differ.

Legend:
[1] = EDTA challenge, in vitro stability (radio-TLC); type: physicochemical; details: for order of ^89Zr complex stability: based upon EDTA challenge studies
Method: Lipophilicity (Log P) will be determined using the water:octanol method. Briefly, the water:octanol (1:1) solution containing the ^89Zr-complex (0.19 MBq) will be vortexed (5 min) and then centrifuged (5 minutes at 17,000 rpm). After separation, aliquots from each layer will be counted separately in the gamma counter, and Log P will be calculated as the ratio of counts in the octanol fraction to counts in the aqueous fraction. […] The different pH environments will be meant to reflect the pH environments in normal blood (pH 7) or the lysosome (pH 5). Samples will be analyzed over the course of 7 days using radio-TLC and radio-HPLC.
Based upon our EDTA challenge studies, the order of ^89Zr complex stability can be described as ^89Zr-DOTA>>^89Zr-DOTP>^89Zr-DOTAM>^89Zr-DFO.

[2] = Human serum stability (radio-TLC/ITLC, size exclusion chromatography); type: in vitro ADME; details: for degradation in human serum (radio-ITLC): human serum proteins, 7 days at 37° C.; for In vitro stability (Radio-TLC): Serum, n = 3
Method: (§1) Lipophilicity (Log P) will be determined using the water:octanol method. Briefly, the water:octanol (1:1) solution containing the ^89Zr-complex (0.19 MBq) will be vortexed (5 min) and then centrifuged (5 minutes at 17,000 rpm). After separation, aliquots from each layer will be counted separately in the gamma counter, and Log P will be calculated as the ratio of counts in the octanol fraction to counts in the aqueous fraction. In vitro stability will be determined by incubating each ^89Zr complex at 37° C. in the presence 500 μL of DTPA (50 mM, pH 7 or pH 5), 500 μL of EDTA (50 mM, pH 7 or pH 5), or 500 μL of human serum (at 37° C.). The different pH environments will be meant to reflect the pH environments in normal blood (pH 7) or the lysosome (pH 5). Samples will be analyzed over the course of 7 days using radio-TLC and radio-HPLC.
To further characterize the stability of Zr-tetraazamacrocycle complexes and preliminarily assess their suitability for in vivo applications, each radiometal complex was incubated with human serum proteins for 7 days at 37° C.
Any ^89Zr transchelated to serum proteins is expected to be complexed by EDTA and move to the solvent front in this system.

[3] = Acute in vivo biodistribution of ^89Zr-complexes in normal mice; design: species or system NIH Swiss mice; details: for radioactivity retention in bone tissue over time: up to 72 h
Method: NIH Swiss mice (n=6/time point) will be injected with the ^89Zr-AMC (0.56 MBq (15 μCi)), and then sacrificed at 1, 4, 24, 48 and 72 h post-injection (p.i.). Organs of interest will be removed, weighed and counted on a gamma counter. Percent injected dose per gram (% ID/g) and percent injected dose per organ (% ID/organ) will be counted and compared to a weighed, counted standard for all groups.
The in vivo stability of ^89Zr-DOTA, ^89Zr-DOTP, and ^89Zr-DOTAM were then evaluated in acute biodistribution studies using female NIH Swiss mice (6-8 wk old, n=6). […] While surfactant was used in the injection formulation for biodistribution studies, it is hypothesized that once in the blood stream, ^89Zr-DOTAM aggregates with serum proteins, which are deposited in these tissues during circulation.

[4] = In vitro solution behaviour (aggregation/precipitation); type: physicochemical; details: unless a low concentration of surfactant was included
[5] = DTPA challenge, in vitro stability (radio-TLC); type: physicochemical; details: 50 mM DTPA, n = 3
Method: as §1

[6] = Metal competition studies (demetallation by excess metal salts); type: physicochemical; details: for complex remaining intact: 7 days
Method: Tetraazamacrocycles can chelate numerous, biologically relevant metal cations, and this property can potentially create a second mechanism for ^89Zr^4+ dissociation from its chelator in vivo. To assess the ability of the Zr-complexes to resist demetallation by another metal cation, metal competition studies were performed, in which the radiometal complex was mixed with an excess concentration of metal salts.

[7] = Small animal PET imaging in normal mice; type: in vivo; details: for radioactivity at 4 h (static PET): 4 h after injection; for radioactivity at 24 h (static PET): 24 h after injection; for excretion route (PET): mouse, in vivo
Method: Small animal PET/CT imaging will be conducted on the ^89Zr-AMCs identified from studies described above and in vivo biodistribution studies. NIH Swiss mice (n=6/cohort) will be injected with either ^89ZrCl4, ^89Zr-DFO (11 MBq (300 μCi)) or ^89Zr-AMC and imaged using 1 h dynamic scanning followed by static imaging at 4, 24, 48 h and 72 h p.i. […] All PET images will be co-registered with CT, to (a) allow more accurate selection of regions of interest to correspond with anatomy described by CT, and (b) reduce inaccuracies that result from partial volume effects, which can result in falsely low standard uptake values (SUVs) during data analysis. SUVs and the corresponding % ID/g will be determined from the co-registered PET/CT images using the formula SUV=[nCi/cc×animal weight/injected dose], and correlated to the biodistribution data.
Normal mice were injected with ^89Zr-DFO and ^89Zr-DOTA and dynamic PET imaging done from 0-60 minutes, followed by static imaging at 2, 4, and 24 hours after injection.

[8] = Lipophilicity (log P), water/octanol partition method; type: physicochemical
Method: as §1

[9] = EDTA challenge, in vitro stability (radio-TLC); type: physicochemical; details: 50 mM EDTA, pH 5.5, n = 3

Row | SMILES | order of ^89Zr complex stability [1] | degradation in human serum (radio-ITLC) [2] | In vitro stability (Radio-TLC) ([5]; pH 5.5, 1 h) | In vitro stability (Radio-TLC) ([5]; pH 5.5, 7 d) | In vitro stability (Radio-TLC) ([5]; pH 7.0, 1 h) | In vitro stability (Radio-TLC) ([5]; pH 7.0, 7 d) | In vitro stability (Radio-TLC) ([2]; 1 h) | In vitro stability (Radio-TLC) ([2]; 7 d) | blood clearance ([3]; normal mice, n=6/group) | radioactivity retention in bone tissue over time [3] | radioactivity at 4 h (static PET) [7] | radioactivity at 24 h (static PET) [7] | excretion route (PET) [7] | Lipophilicity (log P) [8] | In vitro stability (Radio-TLC) ([9]; 1 h) | In vitro stability (Radio-TLC) ([9]; 7 d) | also measured
1 | NC(=O)CN1CCN(CC(N)=O)CCN(CC(N)=O)CCN(CC(N)=O)CC1.[89Zr+4] [^89Zr-DOTAM] | ^89Zr-DOTA>>^89Zr-DOTP>^89Zr-DOTAM>^89Zr-DFO | no noticeable degradation |  |  |  |  |  |  |  |  |  |  |  |  |  |  | radioactivity retained in liver and spleen ([3]; female NIH Swiss mice, not excreted over 72 hour time course): retained elevated levels of radioactivity in liver and spleen tissues; behaviour in solution in vitro [4]: aggregated and precipitated out of solution
2 | O=C([O-])CN1CCN(CC(=O)[O-])CCN(CC(=O)[O-])CCN(CC(=O)[O-])CC1.[89Zr+4] [^89Zr-DOTA] | ^89Zr-DOTA>>^89Zr-DOTP>^89Zr-DOTAM>^89Zr-DFO | no noticeable degradation | 100% | 100% | 100% | 100% | 100% | 100% | rapid blood clearance | remained low with no statistically significant changes at any time point | nearly all the radioactivity was excreted | barely above background levels | excreted renally | most hydrophilic characteristics | 100% | 100% | transchelation in EDTA challenge ([1]; 100-, 500-, and 1000-fold excess of EDTA at pH 5 or pH 7 over 7 days): did not experience transchelation; demetallation in metal competition ([6]; excess concentration of metal salts, 7-day experiment): No demetallation; reduction in radioactivity accumulation in the liver, kidney, and bone ([3]; 72 hours, pilot data): ≥ 10%; radioactivity retained in blood, liver, kidney and bone compared to ^89Zr-DOTP ([3]; intravenous injection): retained significantly less radioactivity in their blood, liver, kidney and bone tissue; radioactivity retained in liver, kidney and bone compared to ^89Zr-DFO ([3]; normal mice, n=6/group): lower radioactivity retention in liver, kidney, and bone tissues; also recorded: retained less radioactivity in the liver, kidney and bone; radioactivity in kidney and bone compared to ^89Zr-DFO (PET) ([7]; dynamic PET 0-60 minutes): much lower
3 | CC(=O)N([O-])CCCCCNC(=O)CCC(=O)N([O-])CCCCCNC(=O)CCC(=O)N([O-])CCCCCN.[89Zr+4] [^89Zr-DFO, reference compound] | ^89Zr-DOTA>>^89Zr-DOTP>^89Zr-DOTAM>^89Zr-DFO | no noticeable degradation | 7.3 ± 0.8% | 0% | 90.3 ± 0.5% | 40.6 ± 0.5% | 100% | 99.3 ± 0.1% | rapid blood clearance | increases over time | more radioactivity accumulated in the kidneys | still visible in static images | excreted renally |  | 6.3 ± 0.8% | 0% | loss of metal ions in EDTA challenge ([1]; 1000-fold excess of EDTA, after 3 h): completely lost metal ions; complex remaining intact ([6]; challenged with Fe^3+): 33.9%; complex remaining intact ([6]; challenged with Ga^3+): 72.6%
4 | [Cl][89Zr]([Cl])([Cl])[Cl] [^89ZrCl4, reference compound] |  |  |  |  |  |  |  |  |  |  |  |  |  |  |  |  | association with serum proteins (size exclusion chromatography) ([2]; unchelated ^89Zr control): found to be associated with serum proteins
5 | O=P([O-])(O)CN1CCN(CP(=O)([O-])O)CCN(CP(=O)([O-])O)CCN(CP(=O)([O-])O)CC1.[89Zr+4] [^89Zr-DOTP] | ^89Zr-DOTA>>^89Zr-DOTP>^89Zr-DOTAM>^89Zr-DFO | no noticeable degradation |  |  |  |  |  |  |  |  |  |  |  | most hydrophilic characteristics |  |  | bone retention compared to ^89Zr-DFO ([3]; n=6/group): Bone retention is higher; radioactivity retained in liver and kidney compared to ^89Zr-DFO ([3]; n=6/group): retained less radioactivity in the liver and kidney
